We go through nine molecules from paper PMC7690281 (Antiviral Research, 2020).

Experiment [1] has as its system endolysosomal calcium in Vero cells. It counts as cell-based.
Experiment [2] concerns SARS-2-CoV spike protein-pseudotyped retrovirus (SARS-2-Spp). It counts as cell-based, SARS-CoV-2.
A further experiment deals with ASFV Bpp30GFP. The experiment is classed as cell-based, African swine fever virus (ASFV). As to conditions: for reduction of ASFV infectivity: 10 μM.
The subject of experiment [3] is ASFV viral DNA (p72 gene). The experiment is classed as cell-based, African swine fever virus (ASFV).
Experiment [4] has as its system ASFV early p30 and late p72 proteins. The experiment is classed as cell-based, African swine fever virus (ASFV).
Experiment [5] concerns VSV pseudovirions with EBOV GP (rVSV-EBOV-luc). The experiment is classed as cell-based, Ebola virus (EBOV).
The subject of experiment [6] is acidic endosomes of Vero cells. It counts as cell-based.

“Also recorded” adds a separate entry of the source. Counter-ions that a name gives are not always drawn.

Regarding `Cl.O=C(c1ccc(OCCN2CCCCC2)cc1)c1c(-c2ccc(O)cc2)sc2cc(O)ccc12` [Raloxifen, Raloxifene hydrochloride], in experiment [1], the “distribution of calcium indicator Fluo8” value was “calcium indicator markedly accumulated in fluorescent vesicles”; the “distribution of calcium indicator Fluo8 and viral factories” value was “marked accumulation of fluorescent vesicles and the absence of viral factories”. In addition, the “reduction of SARS-2-Spp entry (luciferase levels) compared to vehicle” value (“reduction of SARS-2-Spp entry” for short) in experiment [2] was “over 90%”. Besides, in the experiment with ASFV Bpp30GFP, the “effect on ASFV infection/entry” value was “potent inhibitory effect; also recorded: strongly reduced ASFV entry” and the “reduction of ASFV infectivity” value was found to be 80%. In addition, in experiment [3], the “viral DNA replication (ASFV genome copy number)” value is recorded as “reduced viral DNA synthesis”. Moreover, the “expression of early viral protein p30 and late viral protein p72” value in experiment [4] is “reduction of the expression of early viral protein p30 and late viral protein p72”.

In the case of `Cc1cccc(/C=N/Nc2cc(N3CCOCC3)nc(OCCc3ccccn3)n2)c1` [Apilimod], the “infectivity reduction, EBOV GP pseudovirus” value in experiment [5] is “over 75%”.

As for `CO/C1=C\C(C)=C\[C@@H](C)[C@@H](O)[C@@H](C)C/C(C)=C/C=C/[C@H](OC)[C@@H]([C@@H](C)[C@@H](O)[C@H](C)[C@@]2(O)C[C@@H](O)[C@H](C)[C@@H](C(C)C)O2)OC1=O` [BAF, Bafilomycin], in experiment [6], the “endosome acidification (LysoTracker Red staining)” value is “strong reduction of acidic endosomes”.

For the molecule `COc1ccc2cc1Oc1ccc(cc1)C[C@H]1c3cc(c(OC)cc3CCN1C)Oc1c(OC)c(OC)cc3c1[C@H](C2)N(C)CC3` [Tetrandine, Tetrandrine], the “reduction of SARS-2-Spp entry” value in experiment [2] is “over 99%”.

For the molecule `CC/C(=C(\c1ccccc1)c1ccc(OCCN(C)C)cc1)c1ccccc1` [Tamoxifen, Tamoxifen citrate], in the experiment on ASFV Bpp30GFP, the “effect on ASFV infection/entry” value is given as “potent inhibitory effect; also recorded: strongly reduced ASFV entry” and the “reduction of ASFV infectivity” value was found to be 80%. Further, the “viral DNA replication (ASFV genome copy number)” value in experiment [3] was “reduced viral DNA synthesis”. For the same molecule, the “expression of early viral protein p30 and late viral protein p72” value in experiment [4] was “reduction of the expression of early viral protein p30 and late viral protein p72”.

Consider `C[C@]12CC[C@@H]3c4ccc(O)cc4CC[C@H]3[C@@H]1CC[C@@H]2O` [Estradiol, β-Estradiol], for which the “effect on ASFV infection/entry” value in the experiment with ASFV Bpp30GFP is “low impact”.

Regarding `COc1ccc(CCN(C)CCCC(C#N)(c2ccc(OC)c(OC)c2)C(C)C)cc1OC` (stereo not drawn) [Verapamil], the “reduction of SARS-2-Spp entry” value in experiment [2] was “over 90%”.

For the molecule `C[C@]12CC[C@@H]3c4ccc(O)cc4C[C@@H](CCCCCCCCC[S+]([O-])CCCC(F)(F)C(F)(F)F)[C@H]3[C@@H]1CC[C@@H]2O` (stereo partly drawn) [Fulvestran, Fulvestrant], the “impact on ASFV infectivity” value with ASFV Bpp30GFP (100 μM) is given as “under 20%”.

As to `Nc1ccc(C(=O)Nc2cccc(-c3nc(N4CCOCC4)c4oc5ncccc5c4n3)c2)cn1` [YM201636], the “reduction in the luciferase activity levels (SARS-2-Spp)” value in experiment [2] (1 μM) came out at 65%.
